Test results published in patent US20120220567A1, “BENZO-FUSED OXAZEPINE COMPOUNDS AS STEAROYL-COENZYME A DELTA-9 DESATURASE INHIBITORS” (priority 2009, published 2012).
Like-named read-outs stand apart in the source and are kept apart here.

Molecular target: T1, SCD-1 (Homo sapiens, UniProt O00767)
T1 construct: 50 μg of protein from a HepG2 cell P2 pellet; endogenous in cells; host or cells: HepG2 cells (P2 pellet)
T1 sequence (O00767 1-359): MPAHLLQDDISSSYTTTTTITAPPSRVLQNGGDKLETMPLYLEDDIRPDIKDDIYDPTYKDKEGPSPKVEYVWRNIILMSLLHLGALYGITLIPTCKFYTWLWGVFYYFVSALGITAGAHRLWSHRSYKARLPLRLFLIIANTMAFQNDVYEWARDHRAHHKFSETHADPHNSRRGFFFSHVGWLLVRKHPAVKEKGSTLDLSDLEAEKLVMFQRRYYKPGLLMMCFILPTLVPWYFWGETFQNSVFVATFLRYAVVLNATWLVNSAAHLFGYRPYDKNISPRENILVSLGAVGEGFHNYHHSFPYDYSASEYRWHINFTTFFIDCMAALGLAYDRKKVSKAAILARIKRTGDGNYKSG
Experiment: Stearoyl-CoA desaturase assay (HepG2 cell P2 pellet)
Format: biochemical
Conditions: protein from HepG2 cell P2 pellet, 20 μM stearoyl-CoA, 15 min at 25° C., read-out: Ave IC50
Description: Stearoyl-CoA desaturase assays were performed in according to Talamo and Bloch. […] Assays were run in triplicate in 100-μl volumes of 100 mM TrisHCl, pH 7.3, containing 20 μM stearoyl-CoA, 2 mM β-NADH, and 50 μg of protein from a HepG2 cell P2 pellet. Since SCD-1 is the only isoform of SCD expressed in these cells, the assay is specific for SCD-1 with these cells as the source of enzyme. Reaction mixtures were incubated fifteen minutes at 25° C. and reactions were then stopped with a volume of trichloroacetic acid giving a final concentration of 0.2%. After five minutes, a 90-μl volume was transferred to a Millipore Multiscreen HTS 96-well filtration plate (MSHVN4B50) containing 125 μl of 10% charcoal in each well, to which vacuum had been previously applied. Plates were shaken fifteen minutes and then filtered into a collection plate. Fifty-μI volumes of filtrate were transferred to another plate containing 150 μl of MicroScint 40 for counting on a TopCount scintillation counter.

[1] = Table 2, compounds of formula (Ib)
[2] = Table 3, compounds of formula (Ic)

Row | Compound | IC50 [1] | IC50 [2]
1 | Cc1cnc(CNC(=O)c2cnc(N3CCC4(CC3)CCN(Cc3ccc(C(C)(C)C)cc3)c3cccc(F)c3O4)s2)cn1 [Compound 112] | 500 to 10000 nM | 
2 | CC(C)(C)c1ccc(CN2CCC3(CCN(c4ncc(C(=O)NCCN5CCNC5=O)s4)CC3)Oc3c(F)cccc32)cc1 [Compound 113] | 500 to 10000 nM | 
3 | CC(C)(C)OC(=O)CNC(=O)c1cnc(N2CCC3(CC2)CCN(Cc2ccc(C(C)(C)C)cc2)c2cccc(F)c2O3)s1 [Compound 115] | 0.5 to 49 nM | 
4 | CC(C)(C)OC(=O)CCNC(=O)c1cnc(N2CCC3(CC2)CCN(Cc2ccc(C(C)(C)C)cc2)c2cccc(F)c2O3)s1 [Compound 116] | 0.5 to 49 nM | 
5 | CC(C)(C)c1ccc(CN2CCC3(CCN(c4ncc(C(=O)NCCCN5CCCC5)s4)CC3)Oc3c(F)cccc32)cc1 [Compound 117] | > 10000 nM | 
6 | CC(C)(C)c1ccc(CN2CCC3(CCN(c4ncc(C(=O)NCC(O)c5ccccn5)s4)CC3)Oc3c(F)cccc32)cc1 (stereo not drawn) [Compound 118] | 50 to 499 nM | 
7 | CC(C)(C)c1ccc(CN2CCC3(CCN(c4ncc(C(=O)NCCn5ccnc5)s4)CC3)Oc3c(F)cccc32)cc1 [Compound 119] | > 10000 nM | 
8 | Cn1cncc1CNC(=O)c1cnc(N2CCC3(CC2)CCN(Cc2ccc(C(C)(C)C)cc2)c2cccc(F)c2O3)s1 [Compound 121] | > 10000 nM | 
9 | CC(C)(C)CCNC(=O)c1cnc(N2CCC3(CC2)CCN(Cc2ccc(C(C)(C)C)cc2)c2cccc(F)c2O3)s1 [Compound 122] | > 10000 nM | 
10 | CC(C)(C)c1ccc(CN2CCC3(CCN(c4ncc(C(=O)NCCC(=O)O)s4)CC3)Oc3c(F)cccc32)cc1 [Compound 123] | 0.5 to 49 nM | 
11 | CC(C)(C)c1ccc(CN2CCC3(CCN(c4ncc(C(=O)NCCCCCC(=O)O)s4)CC3)Oc3c(F)cccc32)cc1 [Compound 124] | 500 to 10000 nM | 
12 | CC(C)(C)OC(=O)CCNC(=O)c1cnc(N2CCC3(CC2)CCN(Cc2ccc(C(C)(C)C)cc2)c2ccccc2O3)s1 [Compound 125] | 500 to 10000 nM | 
13 | CC(C)(C)c1ccc(CN2CCC3(CCN(c4ncc(C(=O)NC[C@H](O)CO)s4)CC3)Oc3ccccc32)cc1 [Compound 126] | 0.5 to 49 nM | 
14 | N#Cc1cnc(N2CCC3(CC2)CCN(Cc2cccc(C(F)(F)F)c2)c2ccccc2O3)s1 [Compound 127] | 0.5 to 49 nM | 
15 | O=C(O)CCNC(=O)c1cnc(N2CCC3(CC2)CCN(Cc2cccc(C(F)(F)F)c2)c2ccccc2O3)s1 [Compound 129] | 0.5 to 49 nM | 
16 | CC(C)(C)c1ccc(CN2CCC3(CCN(c4ncc(C(=O)NCCC(=O)O)s4)CC3)Oc3ccccc32)cc1 [Compound 130] | 0.5 to 49 nM | 

The next lines start with the values.

Row | IC50 [1] | IC50 [2] | Compound
17 | 0.5 to 49 nM |  | O=C(NCCCO)c1cnc(N2CCC3(CC2)CCN(Cc2cccc(C(F)(F)F)c2)c2cccc(F)c2O3)s1 [Compound 131]
18 | 0.5 to 49 nM |  | O=C(NC[C@H](O)CO)c1cnc(N2CCC3(CC2)CCN(Cc2cccc(C(F)(F)F)c2)c2cccc(F)c2O3)s1 [Compound 132]
19 | 0.5 to 49 nM |  | O=C(O)CCNC(=O)c1cnc(N2CCC3(CC2)CCN(Cc2cccc(C(F)(F)F)c2)c2cccc(F)c2O3)s1 [Compound 133]
20 | 0.5 to 49 nM |  | CC(C)(C)c1ccc(CN2CCC3(CCN(c4ncc(C(=O)NCCCO)s4)CC3)Oc3ccccc32)cc1 [Compound 134]
21 | 50 to 499 nM |  | CC(C)(C)c1ccc(CN2CCC3(CCN(c4ncc(-c5cncnc5)s4)CC3)Oc3ccccc32)cc1 [Compound 135]
22 | 0.5 to 49 nM |  | O=C(O)CNC(=O)c1cnc(N2CCC3(CC2)CCN(Cc2cccc(C(F)(F)F)c2)c2ccccc2O3)s1 [Compound 136]
23 | 500 to 10000 nM |  | CC(C)(C)c1ccc(CN2CCC3(CCN(c4ncc(-c5ccc(C#N)cc5)s4)CC3)Oc3ccccc32)cc1 [Compound 137]
24 | 500 to 10000 nM |  | CC(C)(C)c1ccc(CN2CCC3(CCN(c4ncc(-c5ccccc5)s4)CC3)Oc3ccccc32)cc1 [Compound 138]
25 |  | 500 to 10000 nM | COC(=O)c1ccc(N2CCC3(CC2)CCN(Cc2ccc(C(C)(C)C)cc2)c2ccccc2O3)nn1 [Compound 139]
26 |  | 0.5 to 49 nM | CC(C)(C)c1ccc(CN2CCC3(CCN(c4ccc(C(=O)NCCC5CC5)nn4)CC3)Oc3ccccc32)cc1 [Compound 140]
27 |  | 50 to 499 nM | COC(=O)c1ccc(N2CCC3(CC2)CCN(Cc2ccc(C(C)(C)C)cc2)c2cccc(F)c2O3)nc1 [Compound 143]
